Assay results reported in US20240423948A1, “5-HYDROXYMETHYLFURFURAL FOR THE TREATMENT OF MITOCHONDRIAL DYSFUNCTION” (D-CAP LLC, priority 2021, published 2024).

Columns and labels:
Format in all cases: cell-based, murine
[1] = test system: Hepa1-6 cell line; assay: ATP content (CellTiter-Glo Assay); conditions: for ATP levels: single agent, 24 h, lower (0.1-100 μM) and higher dose range, FIG. 1A and 1D
Procedure: Cell culture: The Hepa1-6 cell line (#CRL-1830, ATCC) was cultured in DMEM culture medium containing 1 g/L glucose, 10% fetal bovine serum, 2 mM glutamine, 100 U/mL Penicillin and 100 μg/mL Streptomycin and 30 μM oleic acid. Cells were seeded at a density of 20 000 cells per well in 96 well plates and incubated for overnight to allow the cells to attach at 37° C. with 5% CO2. Cells were then supplemented with the test substances at indicated concentrations and incubated for indicated time periods (24 h). For all assays the test substances were diluted in 10% DMSO/PBS further diluted with culture medium and added to the cells at the indicated concentrations with a final DMSO concentration of 0.01%. Vehicle controls were treated with 0.01% DMSO. ATP content: Cells were treated for 24 h with the test substances at the indicated concentrations. The cellular ATP content was assessed using the CellTiter-Glo Assay (#G7571, Promega) as per the manufacturer's instructions. Luminescence was detected in a plate reader spectrophotometer. The results were normalized to the luminescence intensity measured in vehicle treated cells and positive controls treated with 0.1% Triton-X, as well as 10 μM FCCP and 1 μM oligomycin. Flat, white bottom plate.

[2] = test system: Hepa1-6 cell line; assay: Mitochondrial reactive oxygen species (MitoSOX Red); conditions: for MitoSOX levels: 24 h
Procedure: Cell culture: The Hepa1-6 cell line (#CRL-1830, ATCC) was cultured in DMEM culture medium containing 1 g/L glucose, 10% fetal bovine serum, 2 mM glutamine, 100 U/mL Penicillin and 100 μg/mL Streptomycin and 30 μM oleic acid. Cells were seeded at a density of 20 000 cells per well in 96 well plates and incubated for overnight to allow the cells to attach at 37° C. with 5% CO2. Cells were then supplemented with the test substances at indicated concentrations and incubated for indicated time periods (24 h). For all assays the test substances were diluted in 10% DMSO/PBS further diluted with culture medium and added to the cells at the indicated concentrations with a final DMSO concentration of 0.01%. Vehicle controls were treated with 0.01% DMSO. Mitochondrial reactive oxygen species (ROS); Cells were treated for 24 h with the test substances at the indicated concentration, as well as positive (10 μM FCCP and 1 μM oligomycin) and negative control. Mitochondrial ROS was detected using MitoSOX™ Red mitochondrial superoxide indicator (#M36008, Invitrogen/Thermo Fisher Scientific). After 24 h treatment of the substances, cells were washed with 100 μl assay buffer (DMEM without phenol red with 4 mM L-glutamine, 4.5 g/L glucose and 1 mM Na-Pyruvate, pH7.4) three times, and 100 μl of […] MitoSOX Red (5 mM MitoSOX™ Red stock solution prepared as indicated by the manufacturer's instruction diluted in 1:2 500 in assay buffer) was added per well, followed by incubation for 30min at 37° C. with 5% CO2. After the incubation cells were washed with 100 μl assay buffer and 100 μl assay buffer was added per well. Fluorescence was measured at excitation 510 nm and emission 580 nm. Use flat, black bottom plates were used.

[3] = test system: Hepa1-6 cell line; assay: Cytotoxicity (CyQuant LDH Cytotoxicity Assay); conditions: single agent, 24 h, lower and higher dose range, FIG. 1C and 1F
Procedure: Cells were seeded at a density of 20 000 cells per well in 96 well plates and incubated for overnight to allow the cells to attach at 37° C. with 5% CO2. Cells were then supplemented with the test substances at indicated concentrations and incubated for indicated time periods (24 h). For all assays the test substances were diluted in 10% DMSO/PBS further diluted with culture medium and added to the cells at the indicated concentrations with a final DMSO concentration of 0.01%. Vehicle controls were treated with 0.01% DMSO. Cytotoxicity: Cytotoxicity was assessed using the CyQuant™ LDH Cytotoxicity Assay Kit (#C20300/C20301, Thermo Fisher). After cells were cultured with the test substances for 24 h, 50 μL of the cell culture medium were transferred to a new 96 well plate and the cytotoxicity assay was performed as per the manufacturer's instructions. Absorbance was measured at 490 nm and background at 680 nm. The signal intensity of untreated cells was considered as the background signal of spontaneous LDH release and subtracted from all measurements. Cytotoxicity was expressed as the percentage of maximum signal intensity observed in freshly lysed cells. Flat, clear plate. 10 μM FCCP, 1 μM oligomycin, 0.1% Triton X as positive control.

[4] = single agent, lower and higher dose range, FIG. 1B and 1E

| Compound | ATP levels [1] | MitoSOX levels [2, 4] | cytotoxicity (LDH) [3] | effect on mitochondrial function (ATP levels) compared with metformin ([1]; FIG. 1 legend, overall) | effect on mitochondrial function (ATP levels) compared with metformin ([1]; lower dose range (physiological doses of Metformin), FIG. 1A) | effect on mitochondrial function (mitochondrial ROS levels) compared with metformin ([2]; FIG. 1 legend, overall) | effect on mitochondrial function (MitoSOX) compared with Metformin ([2]; lower dose range (physiological doses of Metformin), FIG. 1B) | MitoSOX levels ([2]; positive control, 1 μM oligomycin) |
| --- | --- | --- | --- | --- | --- | --- | --- | --- |
| CN(C)C(=N)N=C(N)N [Metformin, reference compound] | ATP reduction | trend of slight increase of MitoSOX levels | without cytotoxic effects | – | – | – | – | – |
| O=Cc1ccc(CO)o1 [5-HMF, 5-Hydroxymethylfurfural] | ATP reduction | trend of slight increase of MitoSOX levels | without cytotoxic effects | comparable to that of metformin | milder than that of Metformin | comparable to that of metformin | milder than that of Metformin | – |
| CC[C@H]1/C=C/C=C/C[C@@H](C)[C@H](O)[C@@](C)(O)C(=O)[C@@H](C)[C@H](O)[C@@H](C)C(=O)[C@@H](C)[C@H](O)[C@@H](C)/C=C/C(=O)O[C@@H]2[C@H](C)[C@H](CC1)O[C@]1(CC[C@H](C)[C@H](C[C@@H](C)O)O1)[C@H]2C [oligomycin, reference compound] | – | – | – | – | – | – | – | no statistically significance |
